Assays:
[1] = biological target: T1, Protein tyrosine phosphatase type IVA 1 (Homo sapiens, UniProt Q93096); assay: Inhibition of PTP4A1 (unknown origin)
T1 sequence (Q93096 whole entry): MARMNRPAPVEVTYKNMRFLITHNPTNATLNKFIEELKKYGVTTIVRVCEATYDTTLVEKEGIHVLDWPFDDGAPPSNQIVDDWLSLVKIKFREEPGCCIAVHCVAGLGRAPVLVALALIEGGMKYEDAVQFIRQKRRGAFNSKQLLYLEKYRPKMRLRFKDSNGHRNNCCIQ

[2] = biological target: T2, Tyrosine-protein phosphatase non-receptor type 1 (Homo sapiens, UniProt P18031); assay: Inhibition of human PTP1B assessed as reduction in hydrolysis using DIFMUP as substrate incubated for 30 mins in presence of DTT by Fluorescence based method
T2 sequence (P18031 whole entry): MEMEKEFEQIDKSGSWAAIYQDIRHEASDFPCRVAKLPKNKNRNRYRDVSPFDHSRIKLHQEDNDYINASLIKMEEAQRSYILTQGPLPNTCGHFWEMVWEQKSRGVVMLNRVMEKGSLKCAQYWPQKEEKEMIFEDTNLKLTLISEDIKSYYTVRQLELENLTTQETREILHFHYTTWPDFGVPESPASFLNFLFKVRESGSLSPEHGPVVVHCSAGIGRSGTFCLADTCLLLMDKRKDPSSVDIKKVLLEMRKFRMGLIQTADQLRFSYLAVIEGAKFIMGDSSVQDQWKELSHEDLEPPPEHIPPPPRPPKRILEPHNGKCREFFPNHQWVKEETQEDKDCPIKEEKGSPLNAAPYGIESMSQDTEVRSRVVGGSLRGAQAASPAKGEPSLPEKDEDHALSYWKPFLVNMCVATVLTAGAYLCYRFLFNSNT

[3] = biological target: T3, Protein tyrosine phosphatase type IVA 2 (Homo sapiens, UniProt Q12974); assay: Inhibition of PTP4A2 (unknown origin)
T3 sequence (Q12974 whole entry): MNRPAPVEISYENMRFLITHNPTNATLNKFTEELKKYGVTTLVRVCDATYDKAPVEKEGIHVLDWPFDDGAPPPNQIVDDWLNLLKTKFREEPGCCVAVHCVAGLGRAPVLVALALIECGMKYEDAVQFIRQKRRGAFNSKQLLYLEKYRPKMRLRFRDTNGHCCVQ

[4] = biological target: Protein tyrosine phosphatase type IVA 3 (Homo sapiens, UniProt O75365); assay: Inhibition of PTP4A3 (unknown origin)
Protein tyrosine phosphatase type IVA 3, sequence (O75365 whole entry): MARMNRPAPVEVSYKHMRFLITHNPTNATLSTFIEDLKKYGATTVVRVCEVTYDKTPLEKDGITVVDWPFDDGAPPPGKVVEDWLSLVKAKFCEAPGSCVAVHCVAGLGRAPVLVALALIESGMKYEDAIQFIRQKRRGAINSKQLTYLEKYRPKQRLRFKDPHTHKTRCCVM

IC50 [1] [nM] | IC50 [2] [µM] | IC50 [3] [nM] | IC50 [4] [nM] | SMILES
> 20000 | – | – | – | Cc1cc2c(cc1C)CN(c1cccc(C(=O)N/N=C/c3ccc(C(=O)O)cc3)c1)C2
– | > 80 | – | – | N=C1C(=O)NC(=O)c2cc(-c3ccccc3)sc21
300 | – | 300 | 300 | N=C(N)c1ccc(OCCCCCOc2ccc(C(=N)N)cc2)cc1 [PENTAMIDINE]

Source: ChEMBL document CHEMBL4433263, “Tapping the therapeutic potential of protein tyrosine phosphatase 4A with small molecule inhibitors” (Bioorg Med Chem Lett, 2019)
